This experiment relates to staphylococcus hemolyticus. Briefly: Growth of underarm bacteria on agar plates coated with stick formulation, colony count. In kind it is cell-based. The conditions noted are these: for Bacteria count: 37° C., 16 hours, 0% control count 172; for Effect on growth / colony formation of staphylococcus hemolyticus (in words): sticks with 5-15% lauric acid coated on agar. As to the method:
Four simplified stick compositions, each comprising 20% stearyl alcohol gellant and 0%, 5%, 10% and 15% lauric acid, respectively, were prepared. Stearyl alcohol is not considered to be an antibacterial agent. The remainder of each stick consisted of C12-C15 alkyl benzoates, which are synthetic emollients with no antibacterial activity.
A thin layer of each formulation was coated onto an agar plate, by moving the stick across the surface of the plate. A solution of staphylococcus hemolyticus bacteria at 0.1 optical density as measured by UV spectroscopy was diluted by a factor of 40. […] of the bacterial solution was then applied to the agar plate. The plate was incubated at 37° C. for 16 hours. The number of colonies formed on each plate was then recorded.

Data on 1 compound can be found in patent US9730871B2, “Antiperspirant/deodorant cosmetic compositions” (Colgate-Palmolive Company, priority 2012, dated 2017).

On to `CCCCCCCCCCCC(=O)O` [Laurie acid, lauric acid], for which the “Effect on growth / colony formation of staphylococcus hemolyticus (in words)” value is listed as “inhibit the growth”. The same compound returned a Bacteria count (5% lauric acid in stick with 20% stearyl alcohol and C12-C15 alkyl benzoates) of 120. Under “10% lauric acid in stick with 20% stearyl alcohol and C12-C15 alkyl benzoates”, this compound returned a Bacteria count of 102. The same compound gave a Bacteria count (15% lauric acid in stick with 20% stearyl alcohol and C12-C15 alkyl benzoates) of 49. The “Effect on growth / colony formation of staphylococcus hemolyticus (in words)” value (listed as lauric acid) is “reduction on the number of bacterial colonies formed”.
